US20230212549A1, “COMPOUNDS COMPRISING A […] LIGAND AND USE THEREOF” (priority 2021, published 2023)
Numbered stars: 1 amine (or outer) side, 2 acyl side, 3 side chain; on linkers, the order of the positions; unused ones are H or OH. Bridge positions count the residues as written; N and C are the ends. Square brackets hold non-standard residues; d marks the D form. Peptide text beside a SMILES is read from it. * marks the point of attachment. NH(1-deoxy-D-glucityl) = OC[C@@H](O)[C@@H](O)[C@H](O)[C@@H](O)CN*; X3 = NCCNCC(CNCCN)C(=O)NCCCOCCOCCOCCCN*; mXylylene = c1cc(C[*:1])cc(C[*:2])c1; Suc = O=C(CCC(=O)[*:2])[*:1]; Nle = CCCC[C@H](N)C(=O)O

How the values were obtained:
Human recombinant FAP = Human recombinant FAP (Homo sapiens, UniProt Q12884); assay: FRET-based FAP protease activity assay; format: biochemical; design: purchased R&D systems 3715-SE
[1] = target: T1, FAP-expressing human WI-38 fibroblasts (Homo sapiens, UniProt Q12884); assay: Competitive FACS binding assay
T1 construct: FAP-expressing human WI-38 fibroblasts (ECACC) were cultured in EMEM; host or cells: WI-38 human fibroblasts
Protocol: Cells were analyzed in an Attune NxT flow cytometer. […] […].
Cells were analyzed in an Attune NxT flow cytometer. […]

[2] = pIC50 Category (Activity), FRET-peptide substrate, 37° C.

Chain of Human recombinant FAP (Q12884 whole entry): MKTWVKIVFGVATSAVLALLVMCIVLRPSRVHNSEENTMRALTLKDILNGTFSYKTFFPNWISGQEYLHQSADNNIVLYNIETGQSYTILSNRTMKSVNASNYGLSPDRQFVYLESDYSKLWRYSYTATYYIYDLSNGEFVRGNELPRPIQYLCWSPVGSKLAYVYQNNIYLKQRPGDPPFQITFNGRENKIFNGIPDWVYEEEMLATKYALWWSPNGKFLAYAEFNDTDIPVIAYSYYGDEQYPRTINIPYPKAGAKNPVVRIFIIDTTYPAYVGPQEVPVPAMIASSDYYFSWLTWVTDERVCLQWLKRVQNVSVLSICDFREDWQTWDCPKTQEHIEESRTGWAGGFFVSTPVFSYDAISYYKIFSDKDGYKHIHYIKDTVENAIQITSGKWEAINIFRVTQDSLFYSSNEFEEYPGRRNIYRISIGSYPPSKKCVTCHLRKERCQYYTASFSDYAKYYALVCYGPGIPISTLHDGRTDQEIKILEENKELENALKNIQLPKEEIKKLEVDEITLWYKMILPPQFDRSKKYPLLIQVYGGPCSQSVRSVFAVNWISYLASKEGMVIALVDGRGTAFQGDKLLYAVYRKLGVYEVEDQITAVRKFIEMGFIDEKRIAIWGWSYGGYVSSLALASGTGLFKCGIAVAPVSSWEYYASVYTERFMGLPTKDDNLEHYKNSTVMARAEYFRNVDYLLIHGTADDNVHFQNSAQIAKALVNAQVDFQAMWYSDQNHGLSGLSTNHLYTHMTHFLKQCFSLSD
T1 sequence (Q12884 whole entry): as above

| Compound | IC50 (Human recombinant FAP; [2]) [nM] | IC50 [1] [nM] | IC50 (Human recombinant FAP; pIC50 Category (activity), Recombinant human FAP) [nM] | pIC50 Category (FACS) ([1]; FAP-expressing human WI-38 fibroblasts) |
| --- | --- | --- | --- | --- |
| C[C@@H](O)[C@@H]1NC(=O)[C@@H]2CCCN2C(=O)[C@@H]2CCCN2C(=O)[C@@H](NC(=O)NC2CCCC2)CSCc2cc(CSCCNC(=O)CN3CCN(CC(=O)O)CCN(CC(=O)O)CCN(CC(=O)O)CC3)cc(c2)CSC[C@@H](C(=O)O)NC(=O)[C@H](Cc2ccccc2)NC(=O)[C@H](CCC(N)=O)NC1=O [3BP-3917, Cpentyl-CAyl-[Cys(tMeBn(DOTA-AET))-Pro-Pro-Thr-Gln-Phe-Cys]-OH] | 10 to 79.4 | 10 to 79.4 | – | – |
| C[C@@H](O)[C@@H]1NC(=O)[C@@H]2CCCN2C(=O)[C@@H]2CCCN2C(=O)[C@@H](NC(=O)C2CCOC2)CSCc2cc(CSCCNC(=O)CN3CCN(CC(=O)O)CCN(CC(=O)O)CCN(CC(=O)O)CC3)cc(c2)CSC[C@@H](C(=O)O)NC(=O)[C@H](Cc2ccccc2)NC(=O)[C@H](CCC(N)=O)NC1=O (stereo partly drawn) [3BP-3919, Fur-[Cys(tMeBn(DOTA-AET))-Pro-Pro-Thr-Gln-Phe-Cys]-OH] | 100 to 794 | 100 to 794 | – | – |
| C[C@@H](O)[C@@H]1NC(=O)[C@@H]2CCCN2C(=O)[C@@H]2CCCN2C(=O)[C@@H](NC(=O)[C@@H]2CCCO2)CSCc2cc(CSCCNC(=O)CN3CCN(CC(=O)O)CCN(CC(=O)O)CCN(CC(=O)O)CC3)cc(c2)CSC[C@@H](C(=O)O)NC(=O)[C@H](Cc2ccccc2)NC(=O)[C@H](CCC(N)=O)NC1=O [3BP-3936, Sth-[Cys(tMeBn(DOTA-AET))-Pro-Pro-Thr-Gln-Phe-Cys]-OH] | 10 to 79.4 | 10 to 79.4 | – | – |
| COCCCC(=O)N[C@H]1CSCc2cc(CSCCNC(=O)CN3CCN(CC(=O)O)CCN(CC(=O)O)CCN(CC(=O)O)CC3)cc(c2)CSC[C@@H](C(=O)O)NC(=O)[C@H](Cc2ccccc2)NC(=O)[C@H](CCC(N)=O)NC(=O)[C@H]([C@@H](C)O)NC(=O)[C@@H]2CCCN2C(=O)[C@@H]2CCCN2C1=O [3BP-3937, MeOBut-[Cys(tMeBn(DOTA-AET))-Pro-Pro-Thr-Gln-Phe-Cys]-OH] | 10 to 79.4 | < 10 | – | – |
| CCCOCC(=O)N[C@H]1CSCc2cc(CSCCNC(=O)CN3CCN(CC(=O)O)CCN(CC(=O)O)CCN(CC(=O)O)CC3)cc(c2)CSC[C@@H](C(=O)O)NC(=O)[C@H](Cc2ccccc2)NC(=O)[C@H](CCC(N)=O)NC(=O)[C@H]([C@@H](C)O)NC(=O)[C@@H]2CCCN2C(=O)[C@@H]2CCCN2C1=O [3BP-3938, PrOAc-[Cys(tMeBn(DOTA-AET))-Pro-Pro-Thr-Gln-Phe-Cys]-OH] | < 10 | < 10 | – | – |
| CCCCCC(=O)N[C@H]1CSCc2cc(CSCCNC(=O)CCC(=O)NCCCOCCOCCOCCCNC(=O)CCC(=O)NCCCOCCOCCOCCCNC(=O)CCC(=O)NCCCOCCOCCOCCCNC(=O)CCC(=O)NCCCOCCOCCOCCCNC(=O)CCCC[C@@H]3SC[C@@H]4NC(=O)N[C@@H]43)cc(c2)CSC[C@@H](C(=O)O)NC(=O)[C@H](Cc2ccccc2)NC(=O)[C@H](CCC(N)=O)NC(=O)[C@H]([C@@H](C)O)NC(=O)[C@@H]2CCCN2C(=O)[C@@H]2CCCN2C1=O [3BP-4170, Hex-[Cys-(tMeBn(Bio-Ttds-Ttds-Ttds-Ttds-AET))-Pro-Pro-Thr-Gln-Phe-Cys]-OH] | 10 to 79.4 | 10 to 79.4 | – | – |
| CCCC[C@H](NC(=O)[C@H](CCC(=O)NC[C@H](O)[C@@H](O)[C@H](O)[C@H](O)CO)NC(=O)CCC(=O)NCCCOCCOCCOCCCNC(=O)C(CNCCN)CNCCN)C(=O)N[C@H]1CSCc2cccc(c2)CSC[C@@H](C(=O)O)NC(=O)[C@H](Cc2ccccc2)NC(=O)[C@H](CCC(=O)O)NC(=O)[C@H]([C@@H](C)O)NC(=O)[C@@H]2CCCN2C(=O)[C@@H]2CCCN2C1=O [3BP-4231, N4Ac-Ttds-Glu(AGLU′)-Nle-[Cys-(3MeBn)-Pro-Pro-Thr-Glu-Phe-Cys]-OH] ({X3-Suc}-E(NH(1-deoxy-D-glucityl))[Nle]CPPTEFC-OH; linker 3-9 via mXylylene) | > 1000 | > 1000 | – | – |
| CCCC[C@H](NC(=O)CCC(=O)NCCCOCCOCCOCCCNC(=O)CC[C@H](NC(=O)C(CNCCN)CNCCN)C(=O)O)C(=O)N[C@H]1CSCc2cccc(c2)CSC[C@@H](C(=O)O)NC(=O)[C@H](Cc2ccccc2)NC(=O)[C@H](CCC(N)=O)NC(=O)[C@H]([C@@H](C)O)NC(=O)[C@@H]2CCCN2C(=O)[C@@H]2CCCN2C1=O [3BP-4245, N4Ac-gGlu-Ttds-Nle-[Cys-(3MeBn)-Pro-Pro-Thr-Gln-Phe-Cys]-OH] | 10 to 79.4 | 10 to 79.4 | – | – |
| CCCC[C@H](NC(=O)[C@H](CCC(=O)NC[C@H](O)[C@@H](O)[C@H](O)[C@H](O)CO)NC(=O)CCC(=O)NCCCOCCOCCOCCCNC(=O)C(CNCCN)CNCCN)C(=O)N[C@H]1CSCc2cccc(c2)CSC[C@@H](C(=O)O)NC(=O)[C@H](Cc2ccccc2)NC(=O)[C@H](CCC(N)=O)NC(=O)[C@H]([C@@H](C)O)NC(=O)[C@@H]2CCCN2C(=O)[C@@H]2CCCN2C1=O [3BP-4248, N4Ac-Ttds-Glu(AGLU′)-Nle-[Cys-(3MeBn)-Pro-Pro-Thr-Gln-Phe-Cys]-OH] | > 1000 | > 1000 | – | – |
| CCCC[C@H](NC(=O)CCC(=O)NCCCOCCOCCOCCCNC(=O)[C@H](CCC(=O)NC[C@H](O)[C@@H](O)[C@H](O)[C@H](O)CO)NC(=O)[C@H](CCC(=O)NC[C@H](O)[C@@H](O)[C@H](O)[C@H](O)CO)NC(=O)C(CNCCN)CNCCN)C(=O)N[C@H]1CSCc2cccc(c2)CSC[C@@H](C(=O)O)NC(=O)[C@H](Cc2ccccc2)NC(=O)[C@H](CCC(N)=O)NC(=O)[C@H]([C@@H](C)O)NC(=O)[C@@H]2CCCN2C(=O)[C@@H]2CCCN2C1=O [3BP-4265, N4Ac-Glu(AGLU′)-Glu(AGLU′)-Ttds-Nle-[Cys-(3MeBn)-Pro-Pro-Thr-Gln-Phe-Cys]-OH] | 10 to 79.4 | 100 to 794 | – | – |
| CCCCCC(=O)N[C@H]1CSCc2cc(CSCCNC(=O)CCC(=O)NCCCOCCOCCOCCCNC(=O)[C@H](CO)NC(=O)[C@H](CO)NC(=O)[C@H](CO)NC(=O)CS)cc(c2)CSC[C@@H](C(=O)O)NC(=O)[C@H](Cc2ccccc2)NC(=O)[C@H](CCC(N)=O)NC(=O)[C@H]([C@@H](C)O)NC(=O)[C@@H]2CCCN2C(=O)[C@@H]2CCCN2C1=O [3BP-4308, Hex-[Cys-(tMeBn(H-SAc-Ser-Ser-Ser-Ttds-AET))-Pro-Pro-Thr-Gln-Phe-Cys]-OH] | 10 to 79.4 | 10 to 79.4 | – | – |
| CCCCCC(=O)N[C@H]1CSCc2cc(CSCCNC(=O)CCCC(=O)Nc3ccc(C[C@@H](CN(CCN(CC(=O)O)CC(=O)O)CC(=O)O)N(CC(=O)O)CC(=O)O)cc3)cc(c2)CSC[C@@H](C(=O)O)NC(=O)[C@H](Cc2ccccc2)NC(=O)[C@H](CCC(N)=O)NC(=O)[C@H]([C@@H](C)O)NC(=O)[C@@H]2CCCN2C(=O)[C@@H]2CCCN2C1=O [3BP-4366, Hex-[Cys-(tMeBn(DTPABzl-Glutar-AET))-Pro-Pro-Thr-Gln-Phe-Cys]-OH] | 100 to 794 | 100 to 794 | – | – |
| CCCCCC(=O)N[C@H]1CSCc2cc(CSCCNC(=O)CCOCCOCCOCCOCCOCCOCCNC(=O)CCc3ccc(O)c(CN(CCN(CC(=O)O)Cc4cc(CCC(=O)O)ccc4O)CC(=O)O)c3)cc(c2)CSC[C@@H](C(=O)O)NC(=O)[C@H](Cc2ccccc2)NC(=O)[C@H](CCC(N)=O)NC(=O)[C@H]([C@@H](C)O)NC(=O)[C@@H]2CCCN2C(=O)[C@@H]2CCCN2C1=O [3BP-4383, Hex-[Cys(tMeBn(HBED-PEG6-AET))-Pro-Pro-Thr-Gln-Phe-Cys]-OH] | 10 to 79.4 | 10 to 79.4 | – | – |
| CCCCCC(=O)N[C@H]1CSCc2cc(CSCCNC(=O)CCC(=O)NCCCOCCOCCOCCCNC(=O)CCCCC3(N(C)CC(=O)O)CN(CC(=O)O)CCN(CC(=O)O)C3)cc(c2)CSC[C@@H](C(=O)O)NC(=O)[C@H](Cc2ccccc2)NC(=O)[C@H](CCC(N)=O)NC(=O)[C@H]([C@@H](C)O)NC(=O)[C@@H]2CCCN2C(=O)[C@@H]2CCCN2C1=O [3BP-4384, Hex-[Cys(tMeBn(DATA-Ttds-AET))-Pro-Pro-Thr-Gln-Phe-Cys]-OH] | 10 to 79.4 | 10 to 79.4 | 10 to 79.4 | B (category B for pIC50 values between 7.1 and 8.0) |
| CCCC[C@H](NC(=O)CCC(=O)NCCCOCCOCCOCCCNC(=O)CN1CCN(CC(=O)O)CCN(CC(=O)O)CCN(CC(=O)O)CC1)C(=O)N[C@H]1CSCc2cc(CSCCNC(=O)CN3CCN(CC(=O)O)CCN(CC(=O)O)CCN(CC(=O)O)CC3)cc(c2)CSC[C@@H](C(=O)O)NC(=O)[C@H](Cc2ccccc2)NC(=O)[C@H](CCC(N)=O)NC(=O)[C@H]([C@@H](C)O)NC(=O)[C@@H]2CCCN2C(=O)[C@@H]2CCCN2C1=O [3BP-4386, DOTA-Ttds-Nle-[Cys(tMeBn(DOTA-AET))-Pro-Pro-Thr-Gln-Phe-Cys]-OH] | 10 to 79.4 | 10 to 79.4 | – | – |
| CCCC[C@H](NC(=O)CCC(=O)NCCCOCCOCCOCCCNC(=O)CN1CCN(CC(=O)O)CCN(CC(=O)O)CCN(CC(=O)O)CC1)C(=O)N[C@H]1CSCc2cc(CSCCNC(=O)CN3CCN(CC(=O)O)CCN(CC(=O)O)CCN(CC(=O)O)CC3)cc(c2)CSC[C@@H](C(=O)N[C@@H](CC(=O)O)C(=O)NCCCOCCOCCOCCCNC(=O)CCC(=O)N[C@@H](CCCCNC(=O)CN2CCN(CC(=O)O)CCN(CC(=O)O)CCN(CC(=O)O)CC2)C(N)=O)NC(=O)[C@H](Cc2ccccc2)NC(=O)[C@H](CCC(N)=O)NC(=O)[C@H]([C@@H](C)O)NC(=O)[C@@H]2CCCN2C(=O)[C@@H]2CCCN2C1=O [3BP-4392, DOTA-Ttds-Nle-[Cys(tMeBn(DOTA-AET))-Pro-Pro-Thr-Gln-Phe-Cys]-Asp-Ttds-Lys(DOTA)-NH2] | 10 to 79.4 | 10 to 79.4 | – | – |
| CCCC[C@H](NC(=O)CCC(=O)NCCCOCCOCCOCCCNC(=O)CN1CCN(CC(=O)O)CCN(CC(=O)O)CCN(CC(=O)O)CC1)C(=O)N[C@H]1CSCc2cccc(c2)CSC[C@@H](C(=O)N[C@@H](CC(=O)O)C(=O)NCCCOCCOCCOCCCNC(=O)CCC(=O)N[C@@H](CCCCNC(=O)CN2CCN(CC(=O)O)CCN(CC(=O)O)CCN(CC(=O)O)CC2)C(N)=O)NC(=O)[C@H](Cc2ccccc2)NC(=O)[C@H](CCC(N)=O)NC(=O)[C@H]([C@@H](C)O)NC(=O)[C@@H]2CCCN2C(=O)[C@@H]2CCCN2C1=O [3BP-4393, DOTA-Ttds-Nle-[Cys(3MeBn)-Pro-Pro-Thr-Gln-Phe-Cys]-Asp-Ttds-Lys(DOTA)-NH2] | < 10 | < 10 | – | – |
